Key:
Conditions in all cases: incubation time: 72 h
[1] = test system: BT-474; assay: normalised viability (% of control), CellTiter-Blue; higher = more viable cells (about 100 = DMSO control)
In short: (§1)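 Each entry is normalised viability at a single listed concentration within a series. It comes from breast cancer cell lines incubated 72 h with compound in 384-well plates, then measured with CellTiter-Blue fluorescence at 560/590 nm. Every plate was normalised between vehicle (100) and a positive kill control (0).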

[2] = test system: CAL-120; assay: as above
In short: as §1

[3] = test system: CAL-148; assay: as above
In short: as §1

[4] = test system: CAL-85-1; assay: as above
In short: as §1

[5] = test system: HCC1143; assay: as above
In short: as §1

[6] = test system: HCC1599; assay: as above
In short: as §1

[7] = test system: HDQ-P1; assay: as above
In short: as §1

[8] = test system: MDA-MB-231; assay: as above
In short: as §1

[9] = test system: MDA-MB-436; assay: as above
In short: as §1

[10] = test system: MDA-MB-453; assay: as above
In short: as §1

[11] = test system: MDA-MB-468; assay: as above
In short: as §1

[12] = test system: MFM-223; assay: as above
In short: as §1

[13] = test system: SK-BR-3; assay: as above
In short: as §1

[14] = test system: BT-474; assay: drug sensitivity score (DSS), CellTiter-Blue viability (DSS (AUC-based score)); higher = stronger viability inhibition; extreme values may be limits of the assay
Protocol: (§2)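 DSRT with the CellTiter-Blue (resazurin reduction) viability readout, fluorescence 560/590 nm, 72 h incubation. Plates were normalised to DMSO and benzethonium chloride controls. DSS is computed from the area under the fitted dose-response curve (5 or 9 concentrations).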

[15] = test system: BT-549; assay: as above
Protocol: as §2

[16] = test system: CAL-120; assay: as above
Protocol: as §2

[17] = test system: CAL-85-1; assay: as above
Protocol: as §2

[18] = test system: DU-4475; assay: as above
Protocol: as §2

[19] = test system: HCC1143; assay: as above
Protocol: as §2

[20] = test system: HCC1599; assay: as above
Protocol: as §2

[21] = test system: HCC1937; assay: as above
Protocol: as §2

[22] = test system: HDQ-P1; assay: as above
Protocol: as §2

[23] = test system: Hs578T; assay: as above
Protocol: as §2

[24] = test system: MDA-MB-231; assay: as above
Protocol: as §2

[25] = test system: MDA-MB-453; assay: as above
Protocol: as §2

[26] = test system: MDA-MB-468; assay: as above
Protocol: as §2

[27] = test system: MFM-223; assay: as above
Protocol: as §2

[28] = test system: SK-BR-3; assay: as above
Protocol: as §2

Row | SMILES | normalised viability ([1]; 100 nM) [%] | normalised viability ([2]; 100 nM) [%] | normalised viability ([3]; 10 nM) [%] | normalised viability ([4]; 10 nM) [%] | normalised viability ([5]; 100 nM) [%] | drug sensitivity score [14] | drug sensitivity score [15] | drug sensitivity score [16] | drug sensitivity score [17] | drug sensitivity score [18] | drug sensitivity score [19] | drug sensitivity score [20] | drug sensitivity score [21] | drug sensitivity score [22] | drug sensitivity score [23] | drug sensitivity score [24] | drug sensitivity score [25] | drug sensitivity score [26] | drug sensitivity score [27] | drug sensitivity score [28] | further results
1 | O=C(c1cc(Cc2n[nH]c(=O)c3ccccc23)ccc1F)N1CCN(C(=O)C2CC2)CC1 [Olaparib] | 105 | 76.2 | 83.3 | 88.1 | 88.2 | 0 | 0 | 0 | 0 | 3.83 | 0 | 0 | 11.2 | 0 | 0 | 0 | 0 | 2.78 | 0 | 0.543 | normalised viability ([6]; 100 nM): 114%; normalised viability ([7]; 10 nM): 99.4%; normalised viability ([8]; 100 nM): 76.5%; normalised viability ([9]; 100 nM): 107%; normalised viability ([10]; 10 nM): 97.8%; normalised viability ([11]; 100 nM): 99.8%; normalised viability ([12]; 100 nM): 103%; normalised viability ([13]; 100 nM): 81.2%
2 | C[C@]12C=CC(=O)C=C1CC[C@@H]1[C@@H]2C(=O)C[C@@]2(C)[C@H]1CC[C@]2(O)C(=O)CO [Prednisone] | 117 | 78.2 | 98.2 | 109 | 101 | 0 | 0 | 0 | 0 | 0 | 0 | 0 | 0 | 0 | 0 | 0 | 0 | 0 | 0 | 0 | normalised viability ([6]; 100 nM): 98.5%; normalised viability ([7]; 10 nM): 104%; normalised viability ([8]; 100 nM): 100%; normalised viability ([9]; 100 nM): 108%; normalised viability ([10]; 10 nM): 112%; normalised viability ([11]; 100 nM): 99.2%; normalised viability ([12]; 100 nM): 92.3%; normalised viability ([13]; 100 nM): 77%
3 | CO[C@H]1C[C@@H]2CC[C@@H](C)[C@@](O)(O2)C(=O)C(=O)N2CCCC[C@H]2C(=O)O[C@H]([C@H](C)C[C@@H]2CC[C@@H](O)[C@H](OC)C2)CC(=O)[C@H](C)/C=C(\C)[C@@H](O)[C@@H](OC)C(=O)[C@H](C)C[C@H](C)/C=C/C=C/C=C/1C [Sirolimus] |  |  |  |  |  | 0 | 20.8 | 17.3 | 17 | 15 | 10.1 | 9.43 | 20.4 | 13.2 | 14.4 | 0 | 27.8 | 14.2 | 21.3 | 15.4 | normalised viability ([1]; 10 nM): 65.9%; normalised viability ([2]; 10 nM): 54.5%; normalised viability ([3]; 1 nM): 74.8%; normalised viability ([4]; 1 nM): 68.9%; normalised viability ([5]; 10 nM): 67.9%; normalised viability ([6]; 10 nM): 73.8%; normalised viability ([7]; 1 nM): 76.7%; normalised viability ([8]; 10 nM): 67.7%; normalised viability ([9]; 10 nM): 82.5%; normalised viability ([10]; 1 nM): 54.3%; normalised viability ([11]; 10 nM): 65.4%; normalised viability ([12]; 10 nM): 49%; normalised viability ([13]; 10 nM): 59.1%
4 | CN1CCN(c2nc(C3=C(c4c[nH]c5ccccc45)C(=O)NC3=O)c3ccccc3n2)CC1 [Sotrastaurin] | 108 | 122 | 116 | 104 | 133 | 0 | 0 | 0 | 0 | 0 | 0 | 0 | 0 | 0 | 0 | 0 | 0 | 0 | 0 | 0 | normalised viability ([6]; 100 nM): 95%; normalised viability ([7]; 10 nM): 89.3%; normalised viability ([8]; 100 nM): 99.4%; normalised viability ([9]; 100 nM): 96.3%; normalised viability ([10]; 10 nM): 93.4%; normalised viability ([11]; 100 nM): 96.3%; normalised viability ([12]; 100 nM): 97.3%; normalised viability ([13]; 100 nM): 73%
5 | CC/C(=C(\c1ccccc1)c1ccc(OCCN(C)C)cc1)c1ccccc1 [Tamoxifen] | 112 | 106 | 108 | 102 | 126 | 0 | 1.73 | 0 | 0 | 0 | 0 | 0 | 0 | 0 | 0 | 0 | 2.6 | 3.95 | 0 | 0 | normalised viability ([6]; 100 nM): 92.5%; normalised viability ([7]; 10 nM): 104%; normalised viability ([8]; 100 nM): 91%; normalised viability ([9]; 100 nM): 97.5%; normalised viability ([10]; 10 nM): 257%; normalised viability ([11]; 100 nM): 122%; normalised viability ([12]; 100 nM): 95.2%; normalised viability ([13]; 100 nM): 90.7%
6 | COc1cc2c(N3CCN(C(=O)Nc4ccc(OC(C)C)cc4)CC3)ncnc2cc1OCCCN1CCCCC1 [Tandutinib] |  |  |  |  |  | 0 | 0 | 0 | 0 | 0 | 0 | 0 | 0 | 0 | 0 | 0 | 0 | 0 | 0 | 0 | normalised viability ([1]; 10 nM): 123%; normalised viability ([2]; 10 nM): 110%; normalised viability ([3]; 1 nM): 98.1%; normalised viability ([4]; 1 nM): 104%; normalised viability ([5]; 10 nM): 125%; normalised viability ([6]; 10 nM): 101%; normalised viability ([7]; 1 nM): 130%; normalised viability ([8]; 10 nM): 108%; normalised viability ([9]; 10 nM): 102%; normalised viability ([10]; 1 nM): 110%; normalised viability ([11]; 10 nM): 108%; normalised viability ([12]; 10 nM): 102%; normalised viability ([13]; 10 nM): 84.3%

— the supplement of paper PMC4862054
